The text below walks through data of PMC4492579, “Potent and Selective Triazole-Based Inhibitors of the Hypoxia-Inducible Factor Prolyl-Hydroxylases with Activity in the Murine Brain” (PLoS ONE, 2015).

The subject of this assay is HIF target genes. Kind of assay: qRT-PCR of HIF target genes in mouse brain. It is filed as in vivo, C57BL/6 mice. The conditions noted are these: 1 h treatment. As for the experimental part:
All animal experiments were performed on male C57BL/6 mice aged 3 months (purchased from Harlan Laboratories, Blackthorn) housed in specific pathogen free conditions with free access to water and standard chow. Mice were injected intraperitonially with the inhibitor (dissolved in Hanks’ buffered saline solution, pH 7.0, 5% DMSO final) or vehicle at the indicated doses for the indicated time as previously described. Tissues from treated mice were harvested and ‘snap frozen’ with liquid nitrogen before being stored at -80°C. For immunoblotting, a portion of the tissues was removed, weighed and homogenised in urea/SDS buffer before being analysed by immunoblotting with HIF1α rabbit polyclonal antibody (10006421, Cayman Chemical, 1:1000) or HIF2α rabbit polyclonal antibody (PM9 [27], 1:1000). […]
Genomic DNA were removed from total RNA preparation using the TURBO DNA-free kit (AM1907, Life Technologies) according to manufacturer’s protocol. […] Relative quantifications were calculated using the ∆∆Ct method normalised to β-actin. […]
To investigate whether the induction of HIFα in the mouse brain has an effect on HIF target genes, we performed quantitative real-time PCR (qRT-PCR) analyses on HIF target genes (including those involved in angiogenesis, i.e. Vegfa, Adm and Il6).

The structures appear in SMILES notation.

For the molecule `CC(C)(C)OC(=O)c1ccc(-n2[nH]cc(-n3ccnn3)c2=O)nc1` [IOX4, t-Butyl 6-(5-oxo-4-(1H-1,2,3-triazol-1-yl)-2,5-dihydro-1H-pyrazol-1-yl)nicotinate], the “mRNA levels of HIF target genes Bnip3, Ldha and Il6 in mouse brain” value is recorded as “remain unaffected”; the “mRNA levels of HIF target genes Epo, Vegfa and Adm in mouse brain” value was “induced in a dose-dependent manner”.
